This note sets out measurements from ChEMBL document CHEMBL3804771, “De novo design of helical peptides to inhibit tumor necrosis factor- by disrupting its trimer formation” (Medchemcomm, 2016).

Calls of active or inactive are those of the source. The calls are words filed in the database; no cut-off is given here.

Series [1] can be described thus: Cytotoxicity against HEK293T cells assessed as cell death at 30 uM after 24 hrs by CCK8 assay. The series is classed as cell-based. The conditions noted are these: human, hek-293t. On the technique in general: Tetrazolium dyes change colour on reduction, which living cells bring about.
Series [2] addresses T1, Tumor necrosis factor (Homo sapiens, UniProt P01375). Kind of series: Binding affinity to human TNFalpha expressed in Escherichia coli by surface plasmon resonance method. (SPR reads the build-up and loss of mass on a sensor chip optically.)
Series [3] has as its target T1, Tumor necrosis factor. Kind of series: Inhibition of human TNFalpha induced NFkappaB activation in HEK293T cells after 6 hrs by dual-glo luciferase assay. The format is cell-based, HEK-293T. The conditions noted are these: for inhibition: HEK-293T.
Series [4] in a line: Cytotoxicity against HEK293T cells at >300 uM after 24 hrs by CCK8 assay. The conditions noted are these: human, hek-293t. The series is classed as cell-based.
For series [5], the target named is T1, Tumor necrosis factor. The series is described as follows: Inhibition of human TNFalpha expressed in Escherichia coli assessed as decrease in TNF-alpha trimer level after 15 mins by SDS-PAGE analysis.
The target in series [6] is T1, Tumor necrosis factor. Kind of series: Inhibition of human TNFalpha expressed in Escherichia coli assessed as increase in TNF-alpha dimer level after 15 mins by SDS-PAGE analysis.
For series [7], the target named is T1, Tumor necrosis factor. The series is described as follows: Inhibition of human TNFalpha expressed in Escherichia coli assessed as increase in TNFalpha monomer level after 15 mins by SDS-PAGE analysis.
The target in series [8] is T1, Tumor necrosis factor. Kind of series: Inhibition of human TNFalpha expressed in Escherichia coli assessed as trimer to dimer transition at 5 uM measured after 12 hrs by mass spectrometry.

A word on the mortality: it is the share of the test organisms that died. One may read the Kd as the constant that tells how readily two partners part at equilibrium. A higher Kd goes with weaker binding. Usually IC50 stands for the midpoint of a concentration-inhibition curve. Low readings indicate inhibition by little substance, high ones a need for much substance.

T1 sequence (P01375 whole entry): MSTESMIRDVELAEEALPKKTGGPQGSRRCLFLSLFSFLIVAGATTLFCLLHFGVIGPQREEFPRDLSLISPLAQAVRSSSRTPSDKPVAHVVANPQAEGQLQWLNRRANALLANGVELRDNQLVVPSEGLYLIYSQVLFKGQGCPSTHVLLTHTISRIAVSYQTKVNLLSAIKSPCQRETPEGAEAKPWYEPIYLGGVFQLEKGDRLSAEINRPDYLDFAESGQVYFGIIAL

Consider `Cc1cc2occ(CN(C)CCN(C)Cc3cn(-c4cccc(C(F)(F)F)c4)c4ccccc34)c(=O)c2cc1C`, for which the mortality in series [1] came to 50%.
`CC[C@H](C)[C@H](NC(=O)[C@H](CCC(N)=O)NC(=O)[C@H](CCC(N)=O)NC(=O)[C@H](Cc1ccccc1)NC(=O)[C@H](CCC(=O)O)NC(=O)[C@H](CCC(N)=O)NC(=O)[C@@H](NC(=O)[C@H](CCC(=O)O)NC(=O)[C@H](CCC(N)=O)NC(=O)[C@H](Cc1c[nH]c2ccccc12)NC(=O)[C@H](CC(N)=O)NC(=O)[C@H](CCCNC(=N)N)NC(=O)[C@H](CCCCN)NC(=O)[C@H](CC(C)C)NC(=O)[C@H](CCC(=O)O)NC(=O)[C@H](CC(=O)O)NC(=O)[C@H](CCC(=O)O)NC(=O)[C@H](C)NC(=O)[C@@H](N)CC(=O)O)[C@@H](C)CC)C(=O)N[C@@H](CC(C)C)C(=O)N[C@@H](CCC(N)=O)C(=O)N[C@@H](CCSC)C(=O)N[C@@H](Cc1ccccc1)C(=O)N[C@@H](Cc1ccccc1)C(=O)N[C@@H](CCC(=O)O)C(=O)N[C@@H](Cc1c[nH]c2ccccc12)C(=O)N[C@@H](Cc1c[nH]c2ccccc12)C(=O)N[C@@H](CCC(N)=O)C(=O)N[C@@H](CCCCN)C(=O)N[C@@H](CC(=O)O)C(=O)O` had a Kd at Tumor necrosis factor [2] of 390 nM. For the same molecule, the IC50 on Tumor necrosis factor [3] amounted to 11900 nM. Further, the Activity result in series [4] is recorded as “Non-toxic”.
As for `CC[C@@H](C)[C@@H](NC(=O)[C@@H](CCC(N)=O)NC(=O)[C@@H](CCC(N)=O)NC(=O)[C@@H](Cc1ccccc1)NC(=O)[C@@H](CCC(=O)O)NC(=O)[C@@H](CCC(N)=O)NC(=O)[C@H](NC(=O)[C@@H](CCC(=O)O)NC(=O)[C@@H](CCC(N)=O)NC(=O)[C@H](Cc1c[nH]c2ccccc12)NC(=O)[C@H](CC(N)=O)NC(=O)[C@H](CCCNC(=N)N)NC(=O)[C@H](CCCCN)NC(=O)[C@H](CC(C)C)NC(=O)[C@H](CCC(=O)O)NC(=O)[C@H](CC(=O)O)NC(=O)[C@H](CCC(=O)O)NC(=O)[C@H](C)NC(=O)[C@H](N)CC(=O)O)[C@@H](C)CC)C(=O)N[C@H](CC(C)C)C(=O)N[C@H](CCC(N)=O)C(=O)N[C@H](CCSC)C(=O)N[C@H](Cc1ccccc1)C(=O)N[C@H](Cc1ccccc1)C(=O)N[C@H](CCC(=O)O)C(=O)N[C@H](Cc1c[nH]c2ccccc12)C(=O)N[C@@H](Cc1c[nH]c2ccccc12)C(=O)N[C@@H](CCC(N)=O)C(=O)N[C@H](CCCCN)C(=O)N[C@@H](CC(=O)O)C(=O)O`, the inhibition result at Tumor necrosis factor [3] was “Dose-dependent effect”. The inhibition result at Tumor necrosis factor [5], at Tumor necrosis factor [6], at Tumor necrosis factor [7] and on Tumor necrosis factor [8] was “Active” in each case.
Consider `CC[C@@H](C)[C@H](NC(=O)[C@H](CCC(=O)O)NC(=O)[C@H](CCC(N)=O)NC(=O)[C@@H](Cc1c[nH]c2ccccc12)NC(=O)[C@@H](CC(N)=O)NC(=O)[C@@H](CCCNC(=N)N)NC(=O)[C@@H](CCCCN)NC(=O)[C@@H](CC(C)C)NC(=O)[C@@H](CCC(=O)O)NC(=O)[C@@H](CC(=O)O)NC(=O)[C@@H](CCC(=O)O)NC(=O)[C@@H](C)NC(=O)[C@@H](N)CC(=O)O)C(=O)N[C@@H](CCC(N)=O)C(=O)N[C@@H](CCC(=O)O)C(=O)N[C@@H](C)C(=O)N[C@@H](CCC(N)=O)C(=O)N[C@@H](CCC(N)=O)C(=O)N[C@H](C(=O)N[C@@H](CC(C)C)C(=O)N[C@@H](CCC(N)=O)C(=O)N[C@@H](CCSC)C(=O)N[C@@H](Cc1ccccc1)C(=O)N[C@@H](Cc1ccccc1)C(=O)N[C@@H](CCC(=O)O)C(=O)N[C@@H](Cc1c[nH]c2ccccc12)C(=O)N[C@H](Cc1c[nH]c2ccccc12)C(=O)N[C@H](CCC(N)=O)C(=O)N[C@@H](CCCCN)C(=O)N[C@H](CC(=O)O)C(=O)O)[C@@H](C)CC`, for which the inhibition result at Tumor necrosis factor [3] is “inactive”.
On to `CC[C@@H](C)[C@H](NC(=O)[C@H](CCC(N)=O)NC(=O)[C@H](CCC(N)=O)NC(=O)[C@H](Cc1ccccc1)NC(=O)[C@H](CCC(=O)O)NC(=O)[C@H](CCC(N)=O)NC(=O)[C@@H](NC(=O)[C@H](CCC(=O)O)NC(=O)[C@H](CCC(N)=O)NC(=O)[C@@H](Cc1c[nH]c2ccccc12)NC(=O)[C@H](CC(N)=O)NC(=O)[C@H](CCCNC(=N)N)NC(=O)[C@H](CCCCN)NC(=O)[C@H](CC(C)C)NC(=O)[C@H](CCC(=O)O)NC(=O)[C@H](CC(=O)O)NC(=O)[C@H](CCC(=O)O)NC(=O)[C@H](C)NC(=O)[C@H](N)CC(=O)O)[C@@H](C)CC)C(=O)N[C@@H](C)C(=O)N[C@@H](CCC(N)=O)C(=O)N[C@@H](CCSC)C(=O)N[C@@H](Cc1ccccc1)C(=O)N[C@@H](Cc1ccccc1)C(=O)N[C@@H](CCC(=O)O)C(=O)N[C@@H](Cc1c[nH]c2ccccc12)C(=O)N[C@@H](Cc1c[nH]c2ccccc12)C(=O)N[C@@H](CCC(N)=O)C(=O)N[C@H](CCCCN)C(=O)N[C@@H](CC(=O)O)C(=O)O`, for which the inhibition entry at Tumor necrosis factor [3] was “inactive”.
Same read-out and setting: the entry for H-DAEDELKRNWQAIQEFQQILQMFFEWWQKD-OH is “inactive”.
Molecule H-LREQRLKEHLQEIQIFEQWLQIFQEQFQKF-OH yielded an equilibrium dissociation constant (Kd) at Tumor necrosis factor [2] of 500 nM. Further, the inhibition result at Tumor necrosis factor [3] is “inactive”. Also, in series [4], the Activity entry is reported as “Non-toxic”.
On Tumor necrosis factor [2], H-QEKWFAEQYARMVLEWIEKELKESL-OH registered a dissociation constant Kd of 500 nM. For the same molecule, the IC50 on Tumor necrosis factor [3] worked out at 20700 nM. In addition, on Tumor necrosis factor [3], the inhibition entry is “Dose-dependent effect”. The inhibition entry at Tumor necrosis factor [5], at Tumor necrosis factor [6], on Tumor necrosis factor [7] and on Tumor necrosis factor [8] was “Active” each time. Moreover, the Activity entry in series [4] is “Non-toxic”.
H-RQQEELYKKWLQEFWKWFQIALQLD-OH yielded a Kd on Tumor necrosis factor [2] of 500 nM. In addition, 32600 nM corresponded to half-maximal inhibition at Tumor necrosis factor [3] (IC50). In addition, on Tumor necrosis factor [3], the inhibition entry was “Dose-dependent effect”. The inhibition result at Tumor necrosis factor [5], on Tumor necrosis factor [6], at Tumor necrosis factor [7] and on Tumor necrosis factor [8] was “Active” each time. Moreover, the Activity result in series [4] is recorded as “Non-toxic”.
As to H-SEQELKQIFQQVFQWWQLWEQFEKQ-OH, the inhibition result at Tumor necrosis factor [5], on Tumor necrosis factor [6], at Tumor necrosis factor [7] and at Tumor necrosis factor [8] was “Active” each time.
